Laboratory results: US20140113898A1, “BISARYLSULFONE AND DIALKYLARYLSULFONE COMPOUNDS AS CALCIUM CHANNEL BLOCKERS” (Zalicus Pharmaceuticals Ltd., priority 2010, published 2014)
Like-named read-outs stand apart in the source and are kept apart here.

Molecular target: T1, CaV2.2 (Homo sapiens, UniProt Q00975)
T1 construct: expressed in transfected cells; host or cells: unnamed doxycycline-inducible cell line
Assay: High-throughput CaV2.2/Kir2.3 FLIPR fluorescent assay
Type: cell-based
Conditions: Fluo-4 FLIPR, closed or inactivated state not stated
Experimental: Cells were plated in 384-well, clear-bottom, black-walled, poly-D-lysine coated plates (Becton Dickinson, Franklin Lake, N.J.) 2 days prior to use in the FLIPR assay. 100 μL of cells (1.4×10^6 cell/mL) containing doxycyline (Sigma-Aldrich, 1.5 μg/mL; to induce channel expression) were added to each well using a Multidrop (Thermo Scientific, Waltham, Mass.) and were maintained in 5% CO2 incubator at 37° C. On the morning of the assay, cells were transferred to a 5% CO2 incubator at 29° C.
Cells were washed with a wash buffer containing (in mM): 118 NaCl, 18.4 HEPES, 11.7 D-glucose, 2 CaCl2, 0.5 MgSO4, 4.7 KCl, 1.2 KH2PO4, pH adjusted to 7.2 with NaOH. 4.4 μM of the fluorescent indicator dye, Fluo-4 (Invitrogen), prepared in pluronic acid (Sigma-Aldrich), was loaded into the wells and incubated for 45 minutes at 29° C. in 5% CO2. Cells were then rinsed with either a 2 mM KCl closed-state buffer (in mM: 138.5 NaCl, 10 HEPES, 10 D-glucose, 1 CaCl2, and 2 KCl, with the pH adjusted to 7.4 with NaOH) when performing the closed-state assay or 12.5 mM KCl inactivated-state buffer (in mM: 128 NaCl, 10 HEPES, 10 D-glucose, 1 CaCl2, and 12.5 mM KCl, with the pH adjusted to 7.4 with NaOH) when performing the inactivated-state assay.
Calcium entry was evoked with an addition of 130 mM KCl stimulation buffer (in mM: 10.5 NaCl, 10 HEPES, 10 D-glucose, 1 CaCl2, and 130 KCl, with the pH adjusted to 7.4 with NaOH) for both the closed-state or inactivated-state assay. A change in the Fluo-4 fluorescence signal was assessed using FLIPR^TETRA™ instrument (Molecular Devices, Sunnyvale, Calif.) for 3 minutes following the elevation of extracellular KCl using an illumination wavelength of 470-495 nm with emissions recorded at 515-575 nm.
Concentration-dependent response curves were obtained by comparing the fluorescence signal in the presence of compound and fitted with a logistic function (1) to obtain the concentration that inhibited 50% (IC50) of the RLU signal using OriginPro v.7.5 software (OriginLab, Northampton, Mass.).
To assess the quality of the FLIPR assays the Z-factor (2) was used to quantify the suitability of the assay conditions using the following equation: […]
Data are expressed as mean and standard deviation (SD).

[1] = Table 4, read-out: FLIPR data CaV2.2
[2] = Table 5, read-out: FLIPR data CaV2.2

T1 sequence (Q00975 whole entry): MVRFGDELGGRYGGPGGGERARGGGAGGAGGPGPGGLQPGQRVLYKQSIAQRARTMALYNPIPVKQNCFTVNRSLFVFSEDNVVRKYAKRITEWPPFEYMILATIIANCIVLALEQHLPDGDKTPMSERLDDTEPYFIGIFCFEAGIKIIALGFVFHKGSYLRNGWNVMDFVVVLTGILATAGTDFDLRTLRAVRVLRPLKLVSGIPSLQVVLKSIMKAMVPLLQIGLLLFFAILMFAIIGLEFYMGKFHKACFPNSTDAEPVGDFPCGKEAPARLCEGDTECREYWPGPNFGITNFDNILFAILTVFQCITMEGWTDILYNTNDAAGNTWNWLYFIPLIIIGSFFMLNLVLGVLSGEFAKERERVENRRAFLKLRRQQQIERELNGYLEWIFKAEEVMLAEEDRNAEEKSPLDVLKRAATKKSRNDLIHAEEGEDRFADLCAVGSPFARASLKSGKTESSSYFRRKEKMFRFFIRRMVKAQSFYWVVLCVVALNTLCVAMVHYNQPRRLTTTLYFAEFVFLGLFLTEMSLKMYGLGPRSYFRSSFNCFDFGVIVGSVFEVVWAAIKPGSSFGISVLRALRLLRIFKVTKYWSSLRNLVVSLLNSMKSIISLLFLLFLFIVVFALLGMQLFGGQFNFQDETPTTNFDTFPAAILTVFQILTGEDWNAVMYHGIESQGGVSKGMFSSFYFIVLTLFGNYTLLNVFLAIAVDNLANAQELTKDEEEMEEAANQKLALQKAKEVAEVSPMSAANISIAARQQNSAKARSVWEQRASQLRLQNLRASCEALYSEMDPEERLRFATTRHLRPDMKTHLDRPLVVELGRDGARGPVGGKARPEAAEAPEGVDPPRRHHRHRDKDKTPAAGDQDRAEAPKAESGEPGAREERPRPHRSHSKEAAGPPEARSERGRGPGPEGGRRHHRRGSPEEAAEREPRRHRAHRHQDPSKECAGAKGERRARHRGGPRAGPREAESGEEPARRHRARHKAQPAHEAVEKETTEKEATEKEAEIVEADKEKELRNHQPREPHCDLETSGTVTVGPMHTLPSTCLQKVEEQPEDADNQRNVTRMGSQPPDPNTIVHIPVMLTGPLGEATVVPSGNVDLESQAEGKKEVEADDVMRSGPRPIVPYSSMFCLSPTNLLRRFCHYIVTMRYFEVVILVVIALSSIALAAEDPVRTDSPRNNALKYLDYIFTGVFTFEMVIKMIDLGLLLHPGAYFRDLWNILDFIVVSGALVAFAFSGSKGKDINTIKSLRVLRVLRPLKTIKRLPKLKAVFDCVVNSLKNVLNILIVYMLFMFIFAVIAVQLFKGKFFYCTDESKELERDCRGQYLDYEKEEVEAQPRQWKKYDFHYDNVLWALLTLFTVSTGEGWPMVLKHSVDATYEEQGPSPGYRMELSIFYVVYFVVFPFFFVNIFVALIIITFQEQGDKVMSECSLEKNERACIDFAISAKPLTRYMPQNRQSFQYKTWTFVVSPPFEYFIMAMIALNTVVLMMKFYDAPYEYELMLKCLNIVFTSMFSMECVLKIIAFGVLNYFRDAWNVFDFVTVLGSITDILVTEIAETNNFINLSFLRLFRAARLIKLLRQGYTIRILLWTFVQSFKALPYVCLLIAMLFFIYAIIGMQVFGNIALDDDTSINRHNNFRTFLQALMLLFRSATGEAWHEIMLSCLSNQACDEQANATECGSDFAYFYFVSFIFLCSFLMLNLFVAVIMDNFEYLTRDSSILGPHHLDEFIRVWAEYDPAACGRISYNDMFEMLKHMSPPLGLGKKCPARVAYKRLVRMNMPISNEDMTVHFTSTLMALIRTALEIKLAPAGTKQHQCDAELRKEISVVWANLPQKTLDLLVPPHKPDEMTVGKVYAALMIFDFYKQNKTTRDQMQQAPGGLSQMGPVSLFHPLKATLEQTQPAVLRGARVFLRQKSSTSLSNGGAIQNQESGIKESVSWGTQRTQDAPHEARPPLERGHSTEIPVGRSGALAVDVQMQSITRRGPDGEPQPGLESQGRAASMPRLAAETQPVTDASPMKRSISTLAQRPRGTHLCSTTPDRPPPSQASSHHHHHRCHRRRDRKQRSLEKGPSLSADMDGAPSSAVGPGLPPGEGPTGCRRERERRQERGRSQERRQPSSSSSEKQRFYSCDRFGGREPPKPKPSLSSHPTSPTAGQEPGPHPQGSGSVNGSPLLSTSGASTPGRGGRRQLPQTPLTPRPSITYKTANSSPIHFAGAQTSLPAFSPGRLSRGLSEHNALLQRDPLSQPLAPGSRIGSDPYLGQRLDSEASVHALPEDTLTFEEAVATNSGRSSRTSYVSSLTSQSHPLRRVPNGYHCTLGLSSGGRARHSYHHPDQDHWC
T1 sequence (P54284 whole entry partner): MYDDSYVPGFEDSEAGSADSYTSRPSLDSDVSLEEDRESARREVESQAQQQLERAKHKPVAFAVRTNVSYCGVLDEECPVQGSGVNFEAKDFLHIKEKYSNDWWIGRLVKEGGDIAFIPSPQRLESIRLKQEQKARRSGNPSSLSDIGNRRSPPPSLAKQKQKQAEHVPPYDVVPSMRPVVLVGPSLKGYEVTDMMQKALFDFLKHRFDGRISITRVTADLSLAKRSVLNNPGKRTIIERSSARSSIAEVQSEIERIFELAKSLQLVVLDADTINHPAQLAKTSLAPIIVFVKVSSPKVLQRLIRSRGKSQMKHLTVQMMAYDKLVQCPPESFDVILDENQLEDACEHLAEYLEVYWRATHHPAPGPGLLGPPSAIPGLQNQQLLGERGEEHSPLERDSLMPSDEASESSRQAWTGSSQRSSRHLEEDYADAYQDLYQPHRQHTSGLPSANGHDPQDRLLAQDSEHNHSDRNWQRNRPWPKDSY
T1 sequence (P54289 25-946 partner limits assumed): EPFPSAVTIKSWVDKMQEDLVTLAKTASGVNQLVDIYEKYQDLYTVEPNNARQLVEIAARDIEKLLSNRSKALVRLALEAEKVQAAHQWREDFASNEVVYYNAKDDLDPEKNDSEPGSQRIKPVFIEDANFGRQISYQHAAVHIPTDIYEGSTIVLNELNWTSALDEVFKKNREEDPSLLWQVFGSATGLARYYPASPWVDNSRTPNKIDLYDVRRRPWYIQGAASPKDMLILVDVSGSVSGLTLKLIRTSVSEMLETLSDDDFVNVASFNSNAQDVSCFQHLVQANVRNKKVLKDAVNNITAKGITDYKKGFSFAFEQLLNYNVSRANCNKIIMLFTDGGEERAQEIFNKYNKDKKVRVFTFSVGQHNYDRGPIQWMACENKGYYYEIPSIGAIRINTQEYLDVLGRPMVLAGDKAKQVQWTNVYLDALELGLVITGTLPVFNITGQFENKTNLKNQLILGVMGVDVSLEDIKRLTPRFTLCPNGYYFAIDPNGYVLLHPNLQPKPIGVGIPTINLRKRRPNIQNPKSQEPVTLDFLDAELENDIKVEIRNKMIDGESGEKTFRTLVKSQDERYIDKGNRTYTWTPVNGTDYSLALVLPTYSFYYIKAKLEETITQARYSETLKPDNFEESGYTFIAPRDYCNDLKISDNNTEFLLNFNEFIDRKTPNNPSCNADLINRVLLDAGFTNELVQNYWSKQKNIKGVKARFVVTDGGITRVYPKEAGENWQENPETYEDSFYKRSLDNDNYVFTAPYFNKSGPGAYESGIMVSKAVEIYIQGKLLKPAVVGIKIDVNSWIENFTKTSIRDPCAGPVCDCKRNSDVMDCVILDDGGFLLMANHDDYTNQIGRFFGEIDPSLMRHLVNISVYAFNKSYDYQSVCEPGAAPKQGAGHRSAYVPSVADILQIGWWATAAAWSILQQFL
T1 sequence (P54289 947-1103 partner limits assumed): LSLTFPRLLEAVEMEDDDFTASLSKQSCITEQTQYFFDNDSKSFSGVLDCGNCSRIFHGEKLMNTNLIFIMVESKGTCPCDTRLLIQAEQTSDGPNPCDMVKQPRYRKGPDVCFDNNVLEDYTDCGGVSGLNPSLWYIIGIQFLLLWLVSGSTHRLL

SMILES	IC50 [1] [nM]	IC50 [2] [nM]	other results
O=C(NCc1ccc(S(=O)(=O)c2cccc(C(F)(F)F)c2)cc1)[C@@H]1C[C@H](F)CN1 [Compound 70, (2S,4S)-4-fluoro-N-(4-((3-(trifluoromethyl)phenyl)sulfonyl)benzyl)pyrrolidine-2-carboxamide]	4740		
Cc1c(C(=O)NCCC(C)(C)S(=O)(=O)c2cccc(C(F)(F)F)c2)sc2nc[nH]c(=O)c12 [Compound 210, 5-methyl-N-(3-methyl-3-((3-(trifluoromethyl)phenyl)sulfonyl)butyl)-4-oxo-3,4-dihydrothieno[2,3-d]pyrimidine-6-carboxamide]		3320	
CC(C)(CCNC(=O)[C@H]1CCCCN1)S(=O)(=O)c1cccc(C(F)(F)F)c1 [Compound 195, (R)-N-(3-methyl-3-((3-(trifluoromethyl)phenyl)sulfonyl)butyl)piperidine-2-carboxamide]		3110	
CC(C)(CCNC(=O)c1ccc(S(C)(=O)=O)cc1Cl)S(=O)(=O)c1cccc(C(F)(F)F)c1 [Compound 189, 2-chloro-N-(3-methyl-3-((3-(trifluoromethyl)phenyl)sulfonyl)butyl)-4-(methylsulfonyl)benzamide]		1360	
CO[C@H]1CN[C@@H](C(=O)NCCC(C)(C)S(=O)(=O)c2cccc(C(F)(F)F)c2)C1 [Compound 199, (2R,4R)-4-methoxy-N-(3-methyl-3-((3-(trifluoromethyl)phenyl)sulfonyl)butyl)pyrrolidine-2-carboxamide]		3310	
CC(C)(CCNC(=O)c1ccc(S(C)(=O)=O)cc1)S(=O)(=O)c1cccc(C(F)(F)F)c1 [Compound 191, N-(3-methyl-3-((3-(trifluoromethyl)phenyl)sulfonyl)butyl)-4-(methylsulfonyl)benzamide]		1420	
CO[C@H]1CN[C@@H](C(=O)NCc2ccc(S(=O)(=O)c3cccc(C(F)(F)F)c3)cc2)C1 [Compound 62, (2R,4R)-4-methoxy-N-(4-((3-(trifluoromethyl)phenyl)sulfonyl)benzyl)pyrrolidine-2-carboxamide]	620		
CN1CCCCC1C(=O)NCc1ccc(S(=O)(=O)c2cccc(C(F)(F)F)c2)cc1 (stereo not drawn) [Compound 84, 1-methyl-N-(4-((3-(trifluoromethyl)phenyl)sulfonyl)benzyl)piperidine-2-carboxamide]	2280		
CC(C)(CNC(=O)c1ccc(S(C)(=O)=O)cc1Cl)S(=O)(=O)c1cccc(C(F)(F)F)c1 [Compound 158, 2-chloro-N-(2-methyl-2-((3-(trifluoromethyl)phenyl)sulfonyl)propyl)-4-(methylsulfonyl)benzamide]		2920	
CC(C)(CCNC(=O)[C@H]1CCCC[C@H]1N)S(=O)(=O)c1cccc(C(F)(F)F)c1 [Compound 209, (1S,2R)-2-amino-N-(3-methyl-3-((3-(trifluoromethyl)phenyl)sulfonyl)butyl)cyclohexanecarboxamide]		1680	
O=C(CCC(F)(F)F)NCc1ccccc1S(=O)(=O)c1cccc(C(F)(F)F)c1 [Compound 55, 4,4,4-trifluoro-N-(2-((3-(trifluoromethyl)phenyl)sulfonyl)benzyl)butanamide]	2680		
CC(C)(C)Oc1ccc(CNC(=O)C(C)(C)S(=O)(=O)c2cccc(C(F)(F)F)c2)cc1 [Compound 144, N-(4-(tert-butoxy)benzyl)-2-methyl-2-((3-(trifluoromethyl)phenyl)sulfonyl)propanamide]		360	
CC(C)(CCNC(=O)C1(N)CCOCC1)S(=O)(=O)c1cccc(C(F)(F)F)c1 [Compound 197, 4-amino-N-(3-methyl-3-((3-(trifluoromethyl)phenyl)sulfonyl)butyl)tetrahydro-2H-pyran-4-carboxamide]		10000	
O=C(NCc1ccc(S(=O)(=O)c2cccc(C(F)(F)F)c2)cc1)C1CCCN1 (stereo in doubt) [Compound 77, (R)-N-(4-((3-(trifluoromethyl)phenyl)sulfonyl)benzyl)pyrrolidine-2-carboxamide]	690		
CC(C)(CCNC(=O)[C@@H]1CCCCN1)S(=O)(=O)c1cccc(C(F)(F)F)c1 [Compound 196, (S)-N-(3-methyl-3-((3-(trifluoromethyl)phenyl)sulfonyl)butyl)piperidine-2-carboxamide]		3510	
O=C(CCC(F)(F)F)NCc1cc(S(=O)(=O)c2cccc(C(F)(F)F)c2)ccn1 [Compound 114, 4,4,4-trifluoro-N-((4-((3-(trifluoromethyl)phenyl)sulfonyl)pyridin-2-yl)methyl)butanamide]	3320		
O=C(NCc1ccccc1S(=O)(=O)c1cccc(C(F)(F)F)c1)c1ccnc(C(F)(F)F)n1 [Compound 46, 2-(trifluoromethyl)-N-(2-((3-(trifluoromethyl)phenyl)sulfonyl)benzyl)pyrimidine-4-carboxamide]	1740		
CO[C@H]1CN[C@@H](C(=O)NCc2ccc(S(=O)(=O)c3cccc(C(F)(F)F)c3)cc2)C1 [Compound 82, (2R,4R)-4-methoxy-N-(4-((3-(trifluoromethyl)phenyl)sulfonyl)benzyl)pyrrolidine-2-carboxamide]	970		
CC(C)(CCNC(=O)[C@H](N)c1ccccc1)S(=O)(=O)c1cccc(C(F)(F)F)c1 [Compound 200]		1050	
Cc1cc(C(=O)NCC(C)(C)S(=O)(=O)c2cccc(C(F)(F)F)c2)cc(C)c1O [Compound 167, 4-hydroxy-3,5-dimethyl-N-(2-methyl-2-((3-(trifluoromethyl)phenyl)sulfonyl)propyl)benzamide]		1400	
CC(C)(CCNC(=O)CC1(N)CCCCC1)S(=O)(=O)c1cccc(C(F)(F)F)c1 [Compound 223, 2-(1-aminocyclohexyl)-N-(3-methyl-3-((3-(trifluoromethyl)phenyl)sulfonyl)butyl)acetamide]		360	
Cc1c(C(=O)NCCC(C)(C)S(=O)(=O)c2cccc(C(F)(F)F)c2)ncn(C(C)C)c1=O [Compound 215, 1-isopropyl-5-methyl-N-(3-methyl-3-((3-(trifluoromethyl)phenyl)sulfonyl)butyl)-6-oxo-1,6-dihydropyrimidine-4-carboxamide]		3160	
CC(C)(CNC(=O)c1ccc(C(F)(F)F)nc1S(C)(=O)=O)S(=O)(=O)c1cccc(C(F)(F)F)c1 [Compound 155, N-(2-methyl-2-((3-(trifluoromethyl)phenyl)sulfonyl)propyl)-2-(methylsulfonyl)-6-(trifluoromethyl)nicotinamide]		1360	
CC(C)(CNC(=O)c1ccnc(C(F)(F)F)c1)S(=O)(=O)c1cccc(C(F)(F)F)c1 [Compound 179, N-(2-methyl-2-((3-(trifluoromethyl)phenyl)sulfonyl)propyl)-2-(trifluoromethyl)isonicotinamide]		1240	
Cc1nc(C(F)(F)F)ccc1C(=O)NCC(C)(C)S(=O)(=O)c1cccc(C(F)(F)F)c1 [Compound 172, 2-methyl-N-(2-methyl-2-((3-(trifluoromethyl)phenyl)sulfonyl)propyl)-6-(trifluoromethyl)nicotinamide]		2170	
CC(C)(C(=O)NCC(O)c1ccccc1Cl)S(=O)(=O)c1cccc(C(F)(F)F)c1 (stereo not drawn) [Compound 141, N-(2-(2-chlorophenyl)-2-hydroxyethyl)-2-methyl-2-((3-(trifluoromethyl)phenyl)sulfonyl)propanamide]		1090	
CC(C)C[C@H](CN)CC(=O)NCCC(C)(C)S(=O)(=O)c1cccc(C(F)(F)F)c1 [Compound 224, (S)-3-(aminomethyl)-5-methyl-N-(3-methyl-3-((3-(trifluoromethyl)phenyl)sulfonyl)butyl)hexanamide]			IC50 (FLIPR data CaV2.2 (nM), Table 5): 470 nM
CC(C)(CCNC(=O)C1(N)CCS(=O)(=O)CC1)S(=O)(=O)c1cccc(C(F)(F)F)c1 [Compound 198, 4-amino-N-(3-methyl-3-((3-(trifluoromethyl)phenyl)sulfonyl)butyl)tetrahydro-2H-thiopyran-4-carboxamide 1,1-dioxide]		9130	
CC1(C(=O)NCc2ccc(S(=O)(=O)c3cccc(C(F)(F)F)c3)cc2)CCCCN1 (stereo not drawn) [Compound 85, 2-methyl-N-(4-((3-(trifluoromethyl)phenyl)sulfonyl)benzyl)piperidine-2-carboxamide]	1940		
CC(C)(N)C(=O)NCCC(C)(C)S(=O)(=O)c1cccc(C(F)(F)F)c1 [Compound 201, 2-amino-2-methyl-N-(3-methyl-3-((3-(trifluoromethyl)phenyl)sulfonyl)butyl)propanamide]		10000	
